*1 amine or outer side, *2 acyl side, *3 side chain or, on linkers, in order; H or OH if unused. Where a SMILES comes first, the peptide text is derived from it. Bridges are numbered along the chain shown (N, C = ends). [ ]: non-standard residue; d: D form. X2 = C[C@H]1CC[C@@](CC(=O)[*:1])(S[*:2])CC1
Tests used:
[1] = biological target: vasopressin stimulated adenylate cyclase (V2 -receptors) (Sus scrofa, UniProt P32307); assay: biochemical
Procedure: (§1) V2 -antagonistic activity toward the natural anti-diuretic hormone (anti-ADH activity) is determined, in vitro, in the medullary tissue of hog or human kidneys and, in vivo, in the hydropenic rat. The in vitro assay procedures for vasopressin stimulated adenylate cyclase activation or vasopressin binding activity are described by F. Stassen et al., J. Pharmacology and Experimental Therapeutics 223, 50-54 (1982). V1 -antagonistic activity is determined by procedures using the rat thoracic aorta tissue and plasma membranes of rat liver. These procedures are described in the noted Stassen publication and in a publication at the 1st International Conference on Diuretics, Miami, Fla., March (1984). Oxytocin antagonism is determined as described by W. Sawyer et al., Endocrinology 106, 81 (1979).
(§2) The hydropenic rat screen and the hog kidney assay are known to the art, Huffman et al., U.S. Pat. No. 4,469,679.

[2] = biological target: vasopressin receptors (V2 -receptors) (Sus scrofa, UniProt P32307); assay: biochemical
vasopressin receptors (V2 -receptors), sequence (P32307 whole entry): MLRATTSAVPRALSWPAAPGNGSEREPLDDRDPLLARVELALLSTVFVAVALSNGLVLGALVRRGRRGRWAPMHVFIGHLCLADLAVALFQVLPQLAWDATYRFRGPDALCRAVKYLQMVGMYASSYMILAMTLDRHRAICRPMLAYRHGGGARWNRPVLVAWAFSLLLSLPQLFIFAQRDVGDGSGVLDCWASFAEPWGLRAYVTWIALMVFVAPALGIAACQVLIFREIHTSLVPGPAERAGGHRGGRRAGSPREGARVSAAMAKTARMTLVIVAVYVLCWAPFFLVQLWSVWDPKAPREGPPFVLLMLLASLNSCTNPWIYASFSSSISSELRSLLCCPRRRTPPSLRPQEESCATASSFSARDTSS
Procedure: as §1, §2

vasopressin stimulated adenylate cyclase (V2 -receptors), sequence (P32307 whole entry): as above

CCOc1ccc(C[C@H]2NC(=O)C[C@]3(CC[C@H](C)CC3)SSC[C@@H](C(=O)N3CCC[C@H]3C(=O)N[C@@H](CCCNC(=N)N)C(=O)NCC(N)=O)NC(=O)[C@H](CC(N)=O)NC(=O)[C@H](C(C)C)NC(=O)[C@H](Cc3ccccc3)NC2=O)cc1 [DTyr(Et) GlyNH2, [1-(4'-methyl-β-mercapto-β,β-cyclopentamethylene propionic acid)-2-(O-ethyl)-D-tyrosine-4-valine-8-arginine]-vasopressin] ([dY](Et)FVNCPRG-NH2; linker N-5 via X2)
Ki [1]: 4.2 nM | Ki [2]: 13 nM

CCOc1ccc(C[C@H]2NC(=O)C[C@]3(CC[C@H](C)CC3)SSC[C@@H](C(=O)N3CCC[C@H]3C(=O)N[C@@H](CCCNC(=N)N)C(N)=O)NC(=O)[C@H](CC(N)=O)NC(=O)[C@H](C(C)C)NC(=O)[C@H](Cc3ccccc3)NC2=O)cc1 [DTyr(Et) NH2, [1-(4'-methyl-β-mercapto-β,β-cyclopentamethylenepropionic acid)-2-(O-ethyl)-D-tyrosine-4-valine-8-arginine-9-desglycine]-vasopressin] ([dY](Et)FVNCPR-NH2; linker N-5 via X2)
Ki [2]: 19 nM

COc1ccc(C[C@@H]2NC(=O)C[C@]3(CC[C@H](C)CC3)SSC[C@@H](C(=O)N3CCC[C@H]3C(=O)N[C@@H](CCCNC(=N)N)C(=O)NCC(N)=O)NC(=O)[C@H](CC(N)=O)NC(=O)[C@H](C(C)C)NC(=O)[C@H](Cc3ccccc3)NC2=O)cc1 [LTyr(Me) GlyNH2] (Y(Me)FVNCPRG-NH2; linker N-5 via X2)
Ki [1]: 44 nM | Ki [2]: 130 nM

From US4826813A, “4'-Methyl-β-mercapto-β,β-cyclopentamethylenepropionic acid vasopressin antagonists” (SmithKline Beckman Corporation, priority 1987, dated 1989)
